Columns and labels:
Assay in all cases: voltage clamp of Xenopus oocytes
Format in all cases: cell-based
[1] = target: T1, CquiOR32-CquiOrco (Culex quinquefasciatus, UniProt A0A3S7SHH6); conditions: inhibitor (reverse current), coexpressed with CquiOrco
T1 construct: gene OR32; full-length OR coexpressed with Orco in Xenopus oocytes; heteromeric ligand-gated cation channel; with Odorant receptor coreceptor Orco
T1 sequence (A0A3S7SHH6 1-397): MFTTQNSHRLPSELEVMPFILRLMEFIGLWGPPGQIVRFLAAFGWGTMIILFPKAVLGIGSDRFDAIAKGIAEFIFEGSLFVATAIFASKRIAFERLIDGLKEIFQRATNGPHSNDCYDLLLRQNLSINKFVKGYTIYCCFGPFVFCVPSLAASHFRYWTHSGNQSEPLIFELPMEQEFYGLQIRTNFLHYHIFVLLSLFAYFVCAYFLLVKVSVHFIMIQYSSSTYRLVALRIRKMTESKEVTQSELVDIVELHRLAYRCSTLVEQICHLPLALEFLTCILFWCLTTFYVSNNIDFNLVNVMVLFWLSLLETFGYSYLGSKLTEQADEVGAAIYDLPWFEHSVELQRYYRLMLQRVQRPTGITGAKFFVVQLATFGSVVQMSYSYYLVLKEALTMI
T1 sequence (Q309I4 1-480 partner): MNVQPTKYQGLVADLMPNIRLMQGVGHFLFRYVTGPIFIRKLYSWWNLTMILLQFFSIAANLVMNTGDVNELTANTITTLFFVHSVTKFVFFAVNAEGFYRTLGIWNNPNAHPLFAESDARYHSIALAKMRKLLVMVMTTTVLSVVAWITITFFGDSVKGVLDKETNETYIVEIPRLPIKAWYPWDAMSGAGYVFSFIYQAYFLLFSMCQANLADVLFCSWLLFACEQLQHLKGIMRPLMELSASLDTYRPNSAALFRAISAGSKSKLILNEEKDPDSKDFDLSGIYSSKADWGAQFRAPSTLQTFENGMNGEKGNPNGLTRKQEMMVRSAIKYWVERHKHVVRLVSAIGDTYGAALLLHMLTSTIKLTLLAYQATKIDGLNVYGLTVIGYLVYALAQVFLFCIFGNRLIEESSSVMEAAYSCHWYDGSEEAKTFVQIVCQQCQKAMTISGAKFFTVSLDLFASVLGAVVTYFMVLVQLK

[2] = target: T1, CquiOR32-CquiOrco; conditions: inhibitor (reverse current), absolute value, coexpressed with CquiOrco
[3] = target: T1, CquiOR32-CquiOrco; conditions: agonist (inward current), absolute value, coexpressed with CquiOrco
[4] = target: T2, CquiOrco (Culex quinquefasciatus, UniProt Q309I4); conditions: Orco agonist; Orco expressed alone
T2 construct: full-length Orco expressed alone in Xenopus oocytes
T2 sequence (Q309I4 1-480): T1 sequence (Q309I4 1-480 partner)

[5] = target: T1, CquiOR32-CquiOrco; conditions: agonist (inward current), dose-dependent, coexpressed with CquiOrco

CCN(CC)C(=O)c1cccc(C)c1 [DEET]
reverse current ([1]; 1 mM (Figure 1A)): eucalyptol, fenchone, DEET, picaridin, IR3535, PMD, and other compounds generated currents in reverse direction

CC12CCC(CC1)C(C)(C)O2 [EUC, eucalyptol]
reverse current ([1]; dose-dependent, also reduces methyl salicylate response, proposed negative allosteric modulator): eucalyptol generated currents in the reverse direction

CCC(C)OC(=O)N1CCCCC1CCO (stereo not drawn) [picaridin]
reverse current ([1]; 1 mM (Figure 1A)): eucalyptol, fenchone, DEET, picaridin, IR3535, PMD, and other compounds generated currents in reverse direction

CC1=CC=C(C(C)C)CC1 [α-terpinene]
reverse current at 1 mM [2]: 43 ± 5 nA

CCC1CCC(=O)O1 (stereo not drawn) [γ-hexalactone]
inward current at 1 mM [3]: 115 ± 14 nA

CCc1ccc(NC(=O)CSc2nnc(-c3cccnc3)n2CC)cc1 [VUAA-1]
current [4]: Response of a CquiOrco-expressing oocyte to Orco agonist, VUAA-1, is displayed in an inset.

COc1ccccc1O [guaiacol]
inward current at 1 mM [3]: 101 ± 11 nA

CC1=NCCS1 [2MT, 2-methyl-2-thiazoline]
inward current ([5]; 1 mM (Figure 1A)): various odorants, including cyclohexanone, methyl salicylate, and 2-methyl-2-thiazoline

CC(=O)c1ccccc1 [acetophenone]
inward current at 1 mM [3]: 58 ± 12 nA

OCCc1ccccc1 [2-phenylethanol]
inward current at 1 mM [3]: 44 ± 9 nA

CC12CCC(C1)C(C)(C)C2=O (stereo not drawn) [FEN, fenchone]
reverse current ([1]; 1 mM (Figure 1A)): eucalyptol, fenchone, DEET, picaridin, IR3535, PMD, and other compounds generated currents in reverse direction

CCC(C)=O [2-butanone]
inward current at 1 mM [3]: 45 ± 7 nA

O=C1CCCCC1 [CYC, cyclohexanone]
inward current ([5]; 1 mM (Figure 1A)): various odorants, including cyclohexanone, methyl salicylate, and 2-methyl-2-thiazoline

CC1=CCC(=C(C)C)CC1 [terpinolene]
reverse current at 1 mM [2]: 38 ± 8 nA

COC(=O)c1ccccc1O [MS, methyl salicylate]
inward current [5]: Methyl salicylate elicited inward currents, and eucalyptol generated currents in the reverse direction

Reference: publication PMC6660600, “Odorant Inhibition in Mosquito Olfaction” (iScience, 2019)
